One data set has as its system Male Wistar rats. In words: Sleep-wakefulness, locomotor activity and body temperature monitoring (SCORE-2000), treatment at CT-18. The conditions noted are these: 30 mg/kg PO, at CT-18.
Another data set deals with Histamine, H2 (Homo sapiens, UniProt P25021). Briefly: Receptor selectivity binding assay comparison. As to conditions: 1.0E−6.
Data set [1] concerns the target Norepinephrine Transporter (Homo sapiens, UniProt P23975). In words: Receptor selectivity binding assay comparison. The conditions noted are these: 1.0E−6.
In the next data set the target is HERG (Homo sapiens, UniProt Q12809).
Sequence of HERG (Q12809 whole entry): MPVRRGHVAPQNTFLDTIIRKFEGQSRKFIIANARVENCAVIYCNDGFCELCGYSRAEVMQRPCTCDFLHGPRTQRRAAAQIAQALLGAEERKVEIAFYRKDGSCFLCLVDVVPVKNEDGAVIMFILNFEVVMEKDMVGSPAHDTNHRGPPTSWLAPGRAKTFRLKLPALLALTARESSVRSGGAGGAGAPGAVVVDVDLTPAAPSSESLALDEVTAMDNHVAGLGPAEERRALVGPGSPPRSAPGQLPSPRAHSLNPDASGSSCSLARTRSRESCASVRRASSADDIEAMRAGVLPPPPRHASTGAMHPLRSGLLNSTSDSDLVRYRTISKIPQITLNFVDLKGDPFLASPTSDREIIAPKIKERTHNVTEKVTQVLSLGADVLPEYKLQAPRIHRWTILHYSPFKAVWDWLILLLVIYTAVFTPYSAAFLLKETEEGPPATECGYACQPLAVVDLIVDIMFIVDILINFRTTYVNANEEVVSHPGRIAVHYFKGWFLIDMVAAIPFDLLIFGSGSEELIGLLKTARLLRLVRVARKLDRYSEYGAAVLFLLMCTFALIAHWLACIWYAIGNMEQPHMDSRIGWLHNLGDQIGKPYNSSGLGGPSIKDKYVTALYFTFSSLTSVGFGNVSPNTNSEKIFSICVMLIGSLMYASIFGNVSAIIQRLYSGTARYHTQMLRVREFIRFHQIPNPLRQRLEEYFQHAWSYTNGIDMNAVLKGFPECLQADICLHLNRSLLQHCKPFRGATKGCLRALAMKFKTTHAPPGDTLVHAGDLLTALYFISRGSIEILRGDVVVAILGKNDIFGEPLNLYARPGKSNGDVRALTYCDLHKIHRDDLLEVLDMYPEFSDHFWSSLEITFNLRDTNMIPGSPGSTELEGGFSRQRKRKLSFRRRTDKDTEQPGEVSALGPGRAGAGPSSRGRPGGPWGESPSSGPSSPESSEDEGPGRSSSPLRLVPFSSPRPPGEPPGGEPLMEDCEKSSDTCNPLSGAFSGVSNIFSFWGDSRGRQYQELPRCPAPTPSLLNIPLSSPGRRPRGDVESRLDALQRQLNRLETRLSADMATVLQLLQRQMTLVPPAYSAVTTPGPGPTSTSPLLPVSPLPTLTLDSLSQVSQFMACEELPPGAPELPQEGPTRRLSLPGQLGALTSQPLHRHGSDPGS
Another data set concerns the target Histamine, H1 (Homo sapiens, UniProt P35367). In words: H1 binding assay by displacement of known standards. On the procedure:
(§1) The following binding assays were performed on the Series 11 compounds described above by displacement of known standards from the H1, M1, M2, and M3 receptors, wherein H1 is a histamine receptor, and M1, M2, and M3 are muscarinic receptors.
The binding studies against the histamine receptor, H1, indicate binding affinity, and therefore the results of the binding assays are an indication of the activity of the compound. […]
The following binding assays were performed on additional compounds described above by displacement of known standards from the H1, M1, M2, and M3 receptors, wherein H1 is a histamine receptor, and M1, M2, and M3 are muscarinic receptors.
The binding assays for H1 was the same as described in Example 10 and the M1, M2, and M3 binding assays are the same as those described in Example 10 for human recombinant expressed cells.

Data set [2] concerns the target T1, Muscarinic, M1 (Human Recombinant) (Homo sapiens, UniProt P11229).
T1 sequence (P11229 1-460): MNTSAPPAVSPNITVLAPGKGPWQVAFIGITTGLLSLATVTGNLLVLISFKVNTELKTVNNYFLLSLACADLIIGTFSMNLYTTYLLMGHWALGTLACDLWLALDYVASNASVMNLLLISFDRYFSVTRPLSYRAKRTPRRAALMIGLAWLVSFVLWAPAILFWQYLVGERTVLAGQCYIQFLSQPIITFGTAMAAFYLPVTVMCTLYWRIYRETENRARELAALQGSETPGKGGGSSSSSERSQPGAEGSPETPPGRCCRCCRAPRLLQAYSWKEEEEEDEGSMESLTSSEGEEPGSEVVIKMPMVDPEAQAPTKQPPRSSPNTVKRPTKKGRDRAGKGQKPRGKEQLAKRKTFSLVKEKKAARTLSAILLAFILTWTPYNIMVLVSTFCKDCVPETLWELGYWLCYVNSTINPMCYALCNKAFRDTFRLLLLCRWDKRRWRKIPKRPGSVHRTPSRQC
Briefly: Receptor selectivity binding assay comparison. As to conditions: 1.0E−6.

The subject of a further data set is muscarinic receptors. In words: Muscarinic receptor binding, M1, M2 and M3 taken together in the conclusions. The procedure: as §1
(§2) In addition, the binding studies against the muscarinic receptors indicate the extent to which the compounds bind the muscarinic receptors, responsible for anti-cholinergic activity of the compound. Binding to muscarinic receptors results in several undesired side effects of many known antihistamines, e.g., dry-mouth. A decrease in the binding of the compounds to the M1-M3 receptors, relative the binding of the compound to the H1 receptor, is an indication of the greater specificity of the compound for the histamine receptor over the muscarinic receptor.

Data set [3] addresses T2, Muscarinic, M2 (Human Recombinant) (Homo sapiens, UniProt P08172).
T2 sequence (P08172 1-466): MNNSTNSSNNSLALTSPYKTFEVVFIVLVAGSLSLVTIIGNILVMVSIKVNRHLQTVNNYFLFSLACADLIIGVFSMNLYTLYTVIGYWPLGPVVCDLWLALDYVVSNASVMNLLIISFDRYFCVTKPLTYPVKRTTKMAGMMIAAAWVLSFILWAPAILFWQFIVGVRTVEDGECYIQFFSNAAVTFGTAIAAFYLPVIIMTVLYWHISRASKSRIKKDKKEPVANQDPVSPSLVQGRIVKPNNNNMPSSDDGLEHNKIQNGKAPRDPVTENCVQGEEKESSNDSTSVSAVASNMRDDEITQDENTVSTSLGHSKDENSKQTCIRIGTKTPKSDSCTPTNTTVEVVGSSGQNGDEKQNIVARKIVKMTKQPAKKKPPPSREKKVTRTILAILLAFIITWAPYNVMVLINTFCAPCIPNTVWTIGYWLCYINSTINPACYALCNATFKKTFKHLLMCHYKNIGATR
In words: Receptor selectivity binding assay comparison. As to conditions: 1.0E−6.

For data set [4] the following is noted: in human blood; cited from earlier work.
Another data set deals with T3, M2 muscarinic receptor (Homo sapiens, UniProt P08172).
T3 sequence (P08172 1-466): T2 sequence (P08172 1-466)
Briefly: M2 binding assay by displacement of known standards (Example 11). On the procedure: as §1, §2

The target of another data set is M3 muscarinic receptor (Homo sapiens, UniProt P20309). In words: M3 binding assay by displacement of known standards (Example 11). On the procedure:
as §1, §2

For another data set, the target named is T4, M1 muscarinic receptor (Homo sapiens, UniProt P11229).
T4 sequence (P11229 1-460): T1 sequence (P11229 1-460)
Briefly: M1 binding assay by displacement of known standards (Example 11). On the procedure: as §1, §2

Read-outs that look alike come from different tables or passages of the source. Marks after values point to notes of the source that are not given here. Where only a bound is given, the exact number is not on record here.

Consider five molecules from patent US20050009730A1, “Treatment of cns disorders using cns target modulators” (priority 2001, published 2005).

Sequence of Histamine, H1 (P35367 whole entry): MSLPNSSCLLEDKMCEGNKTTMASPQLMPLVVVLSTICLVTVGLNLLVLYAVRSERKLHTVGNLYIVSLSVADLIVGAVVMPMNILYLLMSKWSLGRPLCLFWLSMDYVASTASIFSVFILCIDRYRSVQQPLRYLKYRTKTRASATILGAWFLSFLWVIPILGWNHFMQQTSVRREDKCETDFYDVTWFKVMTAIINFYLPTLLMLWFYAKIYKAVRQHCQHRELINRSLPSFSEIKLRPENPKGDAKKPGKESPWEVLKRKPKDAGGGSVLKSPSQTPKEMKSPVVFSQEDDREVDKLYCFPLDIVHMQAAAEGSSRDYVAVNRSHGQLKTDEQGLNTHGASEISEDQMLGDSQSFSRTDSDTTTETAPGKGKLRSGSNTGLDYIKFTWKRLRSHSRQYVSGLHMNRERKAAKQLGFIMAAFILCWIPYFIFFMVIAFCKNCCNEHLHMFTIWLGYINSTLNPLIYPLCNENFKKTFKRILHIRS
Sequence of Histamine, H2 (P25021 whole entry): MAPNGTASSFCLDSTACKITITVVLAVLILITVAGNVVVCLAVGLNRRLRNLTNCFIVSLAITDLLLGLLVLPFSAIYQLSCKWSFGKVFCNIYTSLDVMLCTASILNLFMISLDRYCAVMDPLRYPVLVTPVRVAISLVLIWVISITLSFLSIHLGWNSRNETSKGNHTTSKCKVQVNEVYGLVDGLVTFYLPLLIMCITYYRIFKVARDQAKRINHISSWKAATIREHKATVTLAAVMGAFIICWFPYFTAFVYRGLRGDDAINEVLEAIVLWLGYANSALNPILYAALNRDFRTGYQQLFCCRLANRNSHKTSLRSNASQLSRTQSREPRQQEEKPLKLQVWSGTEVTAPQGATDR
Sequence of M3 muscarinic receptor (P20309 whole entry): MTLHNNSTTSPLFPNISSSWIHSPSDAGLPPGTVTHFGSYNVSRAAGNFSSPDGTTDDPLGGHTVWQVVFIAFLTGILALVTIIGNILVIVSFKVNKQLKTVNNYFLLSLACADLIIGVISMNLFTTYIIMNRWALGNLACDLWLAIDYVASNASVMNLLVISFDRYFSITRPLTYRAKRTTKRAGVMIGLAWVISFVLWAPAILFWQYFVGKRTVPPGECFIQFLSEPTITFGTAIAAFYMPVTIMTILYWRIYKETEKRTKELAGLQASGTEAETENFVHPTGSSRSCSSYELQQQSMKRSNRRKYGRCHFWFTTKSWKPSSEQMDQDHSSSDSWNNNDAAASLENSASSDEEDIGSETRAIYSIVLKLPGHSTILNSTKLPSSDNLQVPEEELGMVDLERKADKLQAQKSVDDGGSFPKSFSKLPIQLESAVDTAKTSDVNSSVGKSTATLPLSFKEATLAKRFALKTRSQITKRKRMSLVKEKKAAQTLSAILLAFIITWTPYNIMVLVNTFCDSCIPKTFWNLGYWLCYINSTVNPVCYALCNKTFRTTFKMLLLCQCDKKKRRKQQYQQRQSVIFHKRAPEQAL
Sequence of Norepinephrine Transporter (P23975 whole entry, species assumed): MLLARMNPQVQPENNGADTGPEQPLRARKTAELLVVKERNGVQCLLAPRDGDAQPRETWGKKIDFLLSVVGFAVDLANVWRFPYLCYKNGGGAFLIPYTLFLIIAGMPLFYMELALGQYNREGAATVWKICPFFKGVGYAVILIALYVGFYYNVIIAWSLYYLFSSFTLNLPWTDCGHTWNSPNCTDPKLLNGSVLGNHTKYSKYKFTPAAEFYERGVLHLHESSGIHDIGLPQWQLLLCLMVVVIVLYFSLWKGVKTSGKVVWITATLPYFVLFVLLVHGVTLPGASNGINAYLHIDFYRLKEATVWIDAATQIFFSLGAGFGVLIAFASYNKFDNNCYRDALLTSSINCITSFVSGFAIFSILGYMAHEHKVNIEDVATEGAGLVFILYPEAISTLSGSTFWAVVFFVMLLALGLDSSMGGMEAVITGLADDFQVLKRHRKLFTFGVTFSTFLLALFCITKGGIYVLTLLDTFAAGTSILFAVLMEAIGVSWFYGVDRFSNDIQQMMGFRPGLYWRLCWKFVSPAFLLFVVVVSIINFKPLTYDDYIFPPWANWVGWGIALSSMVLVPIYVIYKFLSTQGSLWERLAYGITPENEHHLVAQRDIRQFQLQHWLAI

As for `O=C(O)CCN1CCC(=C2c3ccccc3COc3ccccc32)CC1` [Series 8a], in the data set on Male Wistar rats, the “Average Bout-Length” value amounted to 12.2 min, the “Maximum Bout Length” value is 28.9 min, the “NREM Accum.” value was found to be 65.8 min and the “NREM Peak” value was found to be 75.5 %/hr. The molecule further came in with an Onset in the data set on Male Wistar rats of 65 min. In addition, the “Percent Inhibition, Histamine, H2” value on Histamine, H2 is 33.4%. Also, the “Percent Inhibition, Norepinephrine Transporter” value in data set [1] is recorded as −3.9%. Moreover, the “Percent Inhibition, HERG” value at HERG is 4%. For the same molecule, the Ki on Histamine, H1 (read-out: Receptor Binding Data (Ki nM) H1) amounted to 62.5 nM. The “Percent Inhibition, Muscarinic, M1 (Human Recombinant)” value in [2] is given as 3.3%.
In the case of `O=C(CCN1CCC(=C(c2ccccc2)c2ccccc2)CC1)OC1CCOC1` (stereo not shown) [Series 11h], the “difference in binding affinity towards the muscarinic receptors between the enantiomeric compounds” value in the data set with muscarinic receptors is given as “do show a substantial difference”. At Histamine, H1, the half-inhibitory concentration (IC50) came to 201 nM and the “difference in binding affinity towards the H1 receptor between the enantiomeric compounds” value was “do not result in a substantial difference”. Moreover, the Ki on Histamine, H1 (read-out: H1 Ki) is 88.3 nM.
As for `CN(C)CCC=C1c2ccccc2COc2ccccc21` [Doxepin, reference compound], the “Percent Inhibition, Histamine, H2” value at Histamine, H2 is 74.7%. Further, the “Percent Inhibition, HERG” value at HERG was determined as 23%**. In addition, the “Percent Inhibition, Muscarinic, M2 (Human Recombinant)” value in data set [3] is listed as […].
As to `Nc1ncnc2c1ncn2[C@@H]1O[C@H](CO)[C@@H](O)[C@H]1O` [adenosine], the half-life in data set [4] was less than 1 s.
As to `O=C(CCN1CCC(=C(c2ccccc2)c2ccccc2)CC1)O[C@H]1CCOC1` [Series 11g], the IC50 was found to be 5700 nM at M2 muscarinic receptor; 5710 nM on M3 muscarinic receptor; 196 nM at Histamine, H1; 4680 nM at M1 muscarinic receptor. Besides, the Ki was 2080 nM at M2 muscarinic receptor; 1560 nM on M3 muscarinic receptor; 86.1 nM on Histamine, H1 (read-out: H1 Ki); 360 nM at M1 muscarinic receptor. For the same molecule, the “difference in binding affinity towards the muscarinic receptors between the enantiomeric compounds” value in the data set with muscarinic receptors was “do show a substantial difference”. The “difference in binding affinity towards the H1 receptor between the enantiomeric compounds” value on Histamine, H1 was “do not result in a substantial difference”.

For orientation: Ki means the equilibrium dissociation constant of an inhibitor or competing ligand from its target. The term IC50 denotes the concentration that gives 50% inhibition. In general, half-life refers to the time needed for the level to fall by half in the phase considered.
